The values that follow come from patent US20240382465A1, “AROMATIC ACETYLENE DERIVATIVE, AND PREPARATION METHOD THEREFOR AND USE THEREOF” (priority 2021, published 2024).

Structures are written as SMILES. pIC50: −log10 of the molar value. ≈ marks a conversion by molar mass, not a printed value.

Series [1] addresses recombinant Pseudomonas aeruginosa LpxC (Pseudomonas aeruginosa (strain ATCC 15692 / DSM 22644 / CIP 104116 / JCM 14847 / LMG 12228 / 1C / PRS 101 / PAO1), UniProt P47205). The series is described as follows: Inhibition of LpxC enzymatic activity (fluorescamine assay). It is filed as biochemical. The conditions noted are these: recombinant P. aeruginosa LpxC 5 nM, substrate 10 μM, 25° C., 120 minutes; read-out: IC50. In short, it runs like this: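 Recombinant P. aeruginosa LpxC (5 nM) with substrate UDP-3-O-(R-3-hydroxydecanoyl)-GlcNAc (10 μM), 120 min at 25 °C; compound 8 points, 4-fold dilution, 0.61-10,000 nM. Product detected by fluorescamine (ex 390/em 495 nm) after stopping with pH 8.0 phosphate; % inhibition versus DMSO control.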

For series [2], the system named is E. coli ATCC 25922. The series is described as follows: Antibacterial activity, MIC by broth microdilution (CLSI). The conditions noted are these: Escherichia coli, ATCC25922; E. coli ATCC 25922, 35° C., 18 to 24 hours; read-out: MIC(E. coli). Type of series: cell-based. In short, it runs like this:
(§1)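 Broth microdilution per CLSI, compound at 64-0.06 μg/mL final in twofold steps (1% DMSO from 100× working solutions). Inoculum 5×10^5 cfu/ml; plates incubated at 35° C for 18-24 hours.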
(In broth dilution the organism is exposed to a series of concentrations in liquid medium.)

The subject of series [3] is K. pneumoniae ATCC13883. The description is as above. The conditions noted are these: Klebsiella pneumoniae; K. pneumoniae ATCC13883, 35° C., 18 to 24 hours; read-out: MIC(K. Pneumoniae). It is filed as cell-based. An outline of the steps:
as §1

The nature of series [4]: Pharmacokinetic assay in mice. Type of series: in vivo. The conditions noted are these: ICR mice, 15 mg/kg, IV; for AUC(0-inf) / clearance / half-life / Vd: male, mouse, plasma; for AUC(0-inf): read-out: Area under curve AUC0-∞; for clearance: read-out: Clearance CL; for half-life: read-out: Half life T½ (converted); for Vd: read-out: Volume of distribution Vdss. On the procedure:
ICR mice were used as test animals. The injected compounds 17 and 32 of the present disclosure were measured using the LC/MS/MS method to determine the drug concentrations in plasma at different times, in order to study the pharmacokinetic characteristics of the compounds of the present disclosure in mice.
ICR mice, male, weighing 27.8-38 g, were purchased from VitalRiver Laboratory Animal Technology Co., Ltd.
An appropriate amount of the pharmaceutical compound was weighed, added with an appropriate amount of 10% HP-β-CD, vortexed, sonicated for 20 minutes to dissolve the particles, and filtered (PTFE, […]) to obtain […] of a colorless solution.
ICR mice were divided into groups of injection of each test compound (nine mice in each group), fasted overnight, then administered by injection (IV, at an amount of 15 mg/kg and a volume of 5 mL/kg), and fed 4 hours after administration.
About 0.1 mL of blood was collected from the orbit before administration and 0.083 hours, 0.25 hours, 0.5 hours, 1 hour, 2 hours, 4 hours, 8 hours, 12 hours and 24 hours after administration. The whole blood samples were placed in EDTA-K2-containing anticoagulant tubes. After collected, the blood samples were placed on ice, and centrifuged to separate plasma (centrifugation conditions: 1500 g, 10 minutes). The collected plasma was stored at −40 to −20° C. before analysis.
The content of the compound to be tested in the plasma of mice after injection was determined using LC-MS/MS.

Series [5] relates to Klebsiella pneumoniae ATCC 51504. Type of series: in vivo, CD-1 female mice. The conditions noted are these: CD-1 mice; for Change in the body weight of the mice / Reduction of total bacterial load of Klebsiella pneumoniae ATCC 51504 in the lungs compared with the control group: 150 mg/kg intravenous; for Bacterial load in lung, LOG (CFU/mouse), Mean: 150 mg/kg intravenous 2 hours after infection, lungs taken 24 hours after infection. On the procedure:
The efficacy of the compounds of the present disclosure against pulmonary infection caused by Klebsiella pneumoniae ATCC 51504 was determined by the following method. The experimental process is briefly described as follows: The experimental day of inoculating Klebsiella pneumoniae ATCC 51504 was defined as Day 0. On Day −4 and Day −1, CD-1 female mice (6-8 weeks old, purchased from VitalRiver Experimental Animal Technology Co., Ltd., divided into 3 groups, 5 animals in each group) were intraperitoneally injected with cyclophosphamide to induce an immunosuppressive state in mice. Klebsiella pneumoniae ATCC 51504 cells were cultured in advance on a Muaeller-Hinton agar culture plate in a 37° C. incubator overnight. The single colonies were collected, suspended in physiological saline, and adjusted to the required concentration using a turbidity meter. CD-1 female mice were inoculated via intranasal instillation. Each mouse was inoculated with 50 μL of bacterial solution, with an inoculation volume of 1×10^7 CFU/mouse. Two hours after infection, CD-1 female mice were intravenously administered with compound 17 and compound 32 at 150 mg/kg (solvent: 10% HP-β-CD in Sterile Water for Injection). 24 hours after infection, CD-1 female mice were euthanized. The lung tissue was taken, homogenized with physiological saline, and then diluted 10 times in a gradient for a total of 5 times. Then, 10 μL of lung tissue homogenate of each dilution ratio was taken, and inoculated into bacterial culture plates, which were incubated in a 37° C. incubator overnight, then photographed and saved. A culture plate with an appropriate dilution ratio was selected to count the number of colonies and calculate the bacterial load in the lung tissue to evaluate the efficacy of the drug in inhibiting bacteria. The determination results of the efficacy of the compounds of the present disclosure on pulmonary infection caused by Klebsiella pneumoniae are shown in Tables 4 and 5 below.

A word on the pIC50: it is −log10 of the IC50, conventionally taken in molar units. As a reminder, the MIC is the smallest concentration in the dilution series that meets the test's criterion for growth inhibition. What is called clearance is the rate of elimination divided by the concentration. The half-life is the time needed for the level to fall by half in the phase considered.

`C[C@H](O)c1nccn1Cc1cc(-c2ccc(C#Cc3ccc(CN4CC(CC(=O)O)C4)cc3)cc2)on1` [Example 32, (S)-2-(1-(4-((4-(3-((2-(1-hydroxyethyl)-1H-imidazol-1-yl)methyl)isoxazol-5-yl)phenyl)ethynyl)benzyl)azetidin-3-yl)acetic acid]: in series [1], the pIC50 is 7.70. In addition, the MIC in series [2] was determined as 2 µg/mL (≈ 4.03 µM). The MIC in series [3] is 4 µg/mL (≈ 8.06 µM). In series [4], the “Pharmacokinetic properties (conclusion)” value is “good pharmacokinetic properties”, the AUC(0-inf) was 20300 ng·h/mL, the clearance was 12.3 mL/min/kg and the half-life is 1.21 h. Besides, in series [4], the Vd was 0.612 L/kg. Besides, in series [5], the “Change in the body weight of the mice” value is “no significant change”; the “Reduction of total bacterial load of Klebsiella pneumoniae ATCC 51504 in the lungs compared with the control group” value is 4.24 log value; the “Bacterial load in lung, LOG (CFU/mouse), Mean” value was 4.42 LOG (CFU/mouse).

As for `C[C@H](O)c1nccn1Cc1cc(-c2ccc(C#Cc3ccc(CN4CCC(C(=O)O)CC4)cc3)cc2)on1` [Example 17, (S)-1-(4-((4-(3-((2-(1-hydroxyethyl)-1H-imidazol-1-yl)methyl)isoxazol-5-yl)phenyl)ethynyl)benzyl)piperidin-4-carboxylic acid], the pIC50 in series [1] is 8.17. Besides, the MIC in series [2] was determined as 4 µg/mL (≈ 7.83 µM). The MIC in series [3] was determined as 8 µg/mL (≈ 15.7 µM). Further, in series [4], the “Pharmacokinetic properties (conclusion)” value was “good pharmacokinetic properties”, the AUC(0-inf) was found to be 22500 ng·h/mL, the clearance amounted to 11.1 mL/min/kg and the half-life is 1.3 h. Moreover, in series [4], the Vd was 0.48 L/kg. Further, in series [5], the “Change in the body weight of the mice” value is “no significant change”; the “Reduction of total bacterial load of Klebsiella pneumoniae ATCC 51504 in the lungs compared with the control group” value is 4.78 log value; the “Bacterial load in lung, LOG (CFU/mouse), Mean” value is listed as 4.17 LOG (CFU/mouse).

Take `C[C@H](O)c1nccn1Cc1cc(-c2ccc(C#Cc3ccc(CCC(N)=O)nc3)cc2)on1` [Example 40, (S)-3-(5-((4-(3-((2-(1-hydroxyethyl)-1H-imidazol-1-yl)methyl)isoxazol-5-yl)phenyl)ethynyl)pyridin-2-yl)propanamide]: the pIC50 in series [1] was 7.78. The MIC in series [2] was 1 µg/mL (≈ 2.27 µM); in series [3], 4 µg/mL (≈ 9.06 µM).
